Measurements reported in ChEMBL document CHEMBL1157471, “Dopamine/serotonin receptor ligands. Part 17: a cross-target SAR approach: affinities of azecine-styled ligands for 5-HT(2A) versus D1 and D2 receptors” (Bioorg Med Chem Lett, 2008).

Key:
[1] = target: D(1A) dopamine receptor (Homo sapiens, UniProt P21728); assay: Displacement […] from human cloned dopamine D1 receptor
[2] = target: D(2) dopamine receptor (Homo sapiens, UniProt P14416); assay: Displacement […] from human cloned dopamine D2L receptor
[3] = target: 5-hydroxytryptamine receptor 2A (Sus scrofa, UniProt P50129); assay: (§1) Antagonist activity at serotonin 5HT2A receptor assessed as effect on 5HT-induced isometric contractile force in isolated rings of pig coronary artery; assay type: functional, tissue-based; conditions: read-out: pA2 (converted)
[4] = target: 5-hydroxytryptamine receptor 2A (Sus scrofa) (UniProt P50129); assay: as §1; assay type: functional, tissue-based
Chain of 5-hydroxytryptamine receptor 2A (Sus scrofa) (P50129 whole entry): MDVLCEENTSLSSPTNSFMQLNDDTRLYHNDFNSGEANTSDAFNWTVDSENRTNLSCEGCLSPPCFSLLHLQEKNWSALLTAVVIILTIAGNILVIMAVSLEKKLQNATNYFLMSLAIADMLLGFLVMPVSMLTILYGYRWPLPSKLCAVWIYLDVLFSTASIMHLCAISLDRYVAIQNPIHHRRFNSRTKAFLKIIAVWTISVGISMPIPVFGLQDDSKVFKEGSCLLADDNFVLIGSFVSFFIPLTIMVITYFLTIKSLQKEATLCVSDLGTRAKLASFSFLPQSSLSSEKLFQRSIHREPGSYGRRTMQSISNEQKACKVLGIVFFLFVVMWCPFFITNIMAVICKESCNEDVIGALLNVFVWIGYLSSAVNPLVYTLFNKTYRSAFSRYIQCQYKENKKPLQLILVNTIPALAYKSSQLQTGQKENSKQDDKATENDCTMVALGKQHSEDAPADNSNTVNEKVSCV

Chain of D(1A) dopamine receptor (P21728 whole entry): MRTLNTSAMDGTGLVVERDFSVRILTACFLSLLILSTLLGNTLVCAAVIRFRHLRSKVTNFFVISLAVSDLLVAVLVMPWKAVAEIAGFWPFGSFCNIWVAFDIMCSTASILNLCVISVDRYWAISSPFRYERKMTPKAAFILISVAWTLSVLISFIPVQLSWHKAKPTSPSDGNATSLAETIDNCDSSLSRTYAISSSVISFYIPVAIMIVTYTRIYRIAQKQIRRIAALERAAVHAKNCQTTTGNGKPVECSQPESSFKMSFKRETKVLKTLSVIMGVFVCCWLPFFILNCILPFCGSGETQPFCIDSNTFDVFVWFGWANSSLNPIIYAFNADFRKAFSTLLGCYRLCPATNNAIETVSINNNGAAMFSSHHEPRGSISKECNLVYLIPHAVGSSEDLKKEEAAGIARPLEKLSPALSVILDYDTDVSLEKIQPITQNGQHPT
Chain of 5-hydroxytryptamine receptor 2A (P50129 whole entry): as the sequence (P50129 whole entry) above
Chain of D(2) dopamine receptor (P14416 whole entry): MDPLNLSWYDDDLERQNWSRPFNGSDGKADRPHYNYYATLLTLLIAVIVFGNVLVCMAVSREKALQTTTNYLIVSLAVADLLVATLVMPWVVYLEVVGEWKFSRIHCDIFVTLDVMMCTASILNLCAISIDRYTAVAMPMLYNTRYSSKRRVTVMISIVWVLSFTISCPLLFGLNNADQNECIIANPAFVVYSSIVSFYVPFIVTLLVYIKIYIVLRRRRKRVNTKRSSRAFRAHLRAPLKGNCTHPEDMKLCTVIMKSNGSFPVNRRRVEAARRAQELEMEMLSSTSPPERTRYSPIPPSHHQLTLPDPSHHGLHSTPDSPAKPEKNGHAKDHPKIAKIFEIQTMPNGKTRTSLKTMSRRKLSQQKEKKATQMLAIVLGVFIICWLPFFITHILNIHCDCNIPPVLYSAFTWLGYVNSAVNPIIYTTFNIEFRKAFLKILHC

Structure (SMILES) | Ki [1] [nM] | Ki [2] [nM] | Kb [3] [nM] | pD2 [4]
CCN1CCc2ccccc2Cc2ccc(O)cc2CC1 | 3.72 | 77.6 | 3.98 | 
CN1CCc2ccccc2Cc2ccc(O)c(Cl)c2CC1 | 0.813 | 3.55 | 0.891 | 
CN1CCc2ccccc2Cc2[nH]c3ccc(O)cc3c2CC1 |  | 43.7 |  | 9.97
CN1CCc2ccccc2Cc2[nH]c3ccccc3c2CC1 | 1.86 | 41.7 |  | 9.79
COc1ccc2c(c1)CCN(C)CCCc1ccccc1C2 | 21.9 |  | 3.39 | 
O=C(c1ccc(F)cc1)C1CCN(CCn2c(=O)[nH]c3ccccc3c2=O)CC1 [KETANSERIN] |  |  | 1.32 | 
COc1ccc2c(c1)CCCN(C)CCc1ccccc1C2 | 28.2 | 24.5 | 5.75 | 
CN1CCCc2ccccc2Cc2ccc(O)cc2CC1 | 2.67 | 41.7 | 2.14 | 
COc1ccc2c(c1)CCN(C)CCc1ccccc1C2 | 22.9 |  | 2.04 | 
Oc1ccc2c(c1)CCNCCc1ccccc1C2 | 63.1 | 389 | 61.7 | 
CN1CCCc2ccccc2Cc2[nH]c3ccccc3c2CC1 | 2.04 | 13.5 |  | 9.77
CN1CCc2ccccc2Cc2ccc(O)cc2CC1 |  |  | 0.646 | 
CN1CCCc2c([nH]c3ccccc23)Cc2ccccc2CC1 | 158 | 115 | 3.8 | 
